We go through 17 compounds from patent US8530652B2, “Pyrrolopyrazoles, potent kinase inhibitors” (Agouron Pharmaceuticals, Inc., priority 2005, dated 2013).

Structures are written as SMILES. Read-outs that look alike come from different tables or passages of the source.

As usually defined, the EC50 is the midpoint of the concentration-response curve. Low values mean higher potency in that assay, high ones lower potency in that assay. Broadly, the Ki is a dissociation constant, usually derived from enzyme kinetics or from competition with a known ligand. A high value points to weaker binding.

In assay [1] the target is PAK4 kinase activity in whole cells (TR-293-KDG, modified HEK 293 overexpressing GEF-H1b and PAK4 KD) (Homo sapiens (Human), UniProt O96013). As to the kind of experiment: PAK4 cellular assay: sandwich ELISA of PAK4-dependent phosphorylation of GEF-H1b in TR-293-KDG cells. Particulars: doxycycline-induced, 3-hour exposure, phospho-GEF-H1b ELISA. Type of assay: cell-based. From the text:
A sandwich ELISA method was used to measure the PAK4 kinase activity in whole cells. The level of PAK4-dependent phosphorylation of GEF-H1b can be determined by monitoring the binding of a phosphospecific antibody to GEF-H1b. A modified HEK 293 cell line is used in the bioassay and it has been engineered to overexpress both GEF-H1b and the kinase domain (KD) of PAK4. The KD of PAK4 is inducible in this cell line by tetracycline (Trex system, Invitrogen). The name of this cell line has been designated TR-293-KDG. To establish a phosphorylation event on GEF-H1, cells are induced with doxycycline to express the PAK4 KD. […] Candidate substance effect is measured as the ability to block this phosphorylation event.
ELISA plate was prepared by pre-coating the plates with a capture antibody (α-HA-tag mouse monoclonal antibody), blocked with BSA, and washed in 0.1% tween 20 in tris-buffered saline (TBST). Tissue culture plates (precoated with poly-D-lysine) were seeded with TR-293-KDG cells. The TR-293-KDG Cells were induced to express the PAK4 KD with doxycycline overnight and subsequently & concomitantly treated with candidate substances or diluent for an additional 3-hour, continuous exposure. Cells were then lysed with a modified RIPA buffer supplemented with protease inhibitors. The fresh whole cell lysates were then added to the ELISA plate for 2-hours. Between all subsequent steps plates were washed 4 times with TBST. Detection antibody (recognizing the phospho-specific eptitope on GEF-H1b) was added for 1 hour, followed by addition of an enzyme linked goat α-rabbit secondary antibody for 45 minutes. […] EC50 values were calculated by sigmoid curve fitting using a four-parameter analysis.
For orientation: An ELISA detects its analyte on a solid surface through an enzyme-linked reagent.

The target in assay [2] is PAK4 kinase domain (PAK4 KD) (Homo sapiens (Human), UniProt O96013). In words: PAK4 kinase domain enzymatic assay (coupled PK/LDH, NADH absorbance at 340 nm). Type of assay: biochemical.
Where [3] appears, read: PAK4 kinase domain, 25 nM PAK4 KD, 0.04 mM ATP, pH 7.5.

PAK4 kinase activity in whole cells (TR-293-KDG, modified HEK 293 overexpressing GEF-H1b and PAK4 KD), sequence (O96013 321-572): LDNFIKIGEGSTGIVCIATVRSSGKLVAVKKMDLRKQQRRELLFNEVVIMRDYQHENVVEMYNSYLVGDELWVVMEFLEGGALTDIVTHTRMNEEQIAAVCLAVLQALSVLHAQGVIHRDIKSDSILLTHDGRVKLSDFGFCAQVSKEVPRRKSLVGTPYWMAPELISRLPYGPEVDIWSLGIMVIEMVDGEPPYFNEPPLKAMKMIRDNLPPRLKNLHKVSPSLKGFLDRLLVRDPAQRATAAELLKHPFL
PAK4 kinase domain (PAK4 KD), sequence (O96013 321-572): as above

For `COc1nc(Nc2n[nH]c3c2CN(C(=O)NC2CC2c2ccccc2)C3(C)C)nc(N2CCC[C@H]2C#N)n1` (stereo in doubt) [Example 20, 3-({4-[(2S)-2-cyanopyrrolidin-1-yl]-6-methoxy-1,3,5-triazin-2-yl}amino)-6,6-dimethyl-N-[trans-2-phenylcyclopropyl]-4,6-dihydropyrrolo[3,4-c]pyrazole-5(1H)-carboxamide], the EC50 in assay [1] came to 1200 nM. The compound further displayed a Ki in assay [2] of 90 nM.

For the compound `CN1CCN(C(=O)N2Cc3c(Nc4nc(Cl)nc5ccsc45)n[nH]c3C2(C)C)[C@@H](Cc2ccccc2)C1` [Example 3, N-(5-{[(2S)-2-benzyl-4-methylpiperazin-1-yl]carbonyl}-6,6-dimethyl-1,4,5,6 tetrahydropyrrolo[3,4-c]pyrazol-3-yl)-2-chlorothieno[3,2-d]pyrimidin-4-amine], the EC50 in assay [1] turned out to be 16 nM. In assay [2] (setting [3]), this compound registered an inhibition constant (Ki) of 11 nM.

`CN(C)C[C@@H](NC(=O)N1Cc2c(Nc3ncnc4ccsc34)n[nH]c2C1(C)C)c1ccccc1` [Example 5, N-[(1S)-2-(dimethylamino)-1-phenylethyl]-6,6-dimethyl-3-(thieno[3,2-d]pyrimidin-4-ylamino)-4,6-dihydropyrrolo[3,4-c]pyrazole-5(1H)-carboxamide]: in assay [1], the EC50 is 87 nM. Moreover, the affinity in assay [2] (setting [3]) corresponds to a Ki of 220 nM.

Consider `CN(C)C[C@@H](NC(=O)N1Cc2c(Nc3nc(Cl)nc4ccsc34)n[nH]c2C1(C)C)c1ccccc1` [Example 6, 3-[(2-chlorothieno[3,2-d]pyrimidin-4-yl)amino]-N-[(1S)-2-(dimethylamino)-1-phenylethyl]-6,6-dimethyl-4,6-dihydropyrrolo[3,4-c]pyrazole-5(1H)-carboxamide], for which the EC50 in assay [1] amounted to 0.94 nM. The Ki in assay [2] (setting [3]) came out at 2.8 nM.

Consider `CC1(C)c2[nH]nc(Nc3nc(Cl)nc4ccccc34)c2CN1C(=O)NC1CC1c1ccccc1` (stereo not drawn) [Example 12, 3-[(2-chloroquinazolin-4-yl)amino]-6,6-dimethyl-N-[(trans-2-phenylcyclopropyl]-4,6-dihydropyrrolo[3,4-c]pyrazole-5(1H)-carboxamide], for which the 50% effective concentration (EC50) in assay [1] was 78 nM. The same compound registered an inhibition constant (Ki) in assay [2] (setting [3]) of 38 nM.

In turn, `COc1nc(Nc2n[nH]c3c2CN(C(=O)NC2C[C@@H]2c2ccccc2)C3(C)C)nc(N2CCC[C@H]2CO)n1` (stereo partly drawn) [Example 16, 3-({4-[(2S)-2-(hydroxymethyl)pyrrolidin-1-yl]-6-methoxy-1,3,5-triazin-2-yl}amino)-6,6-dimethyl-N-[trans-2-phenylcyclopropyl]-4,6-dihydropyrrolo[3,4-c]pyrazole-5(1H)-carboxamide] came in with a half-maximal effective concentration (EC50) in assay [1] of 1270 nM. This compound returned a Ki in assay [2] (setting [3]) of 76 nM.

For `CN(C)c1nc(Nc2n[nH]c3c2CN(C(=O)NC2C[C@@H]2c2ccccc2)C3(C)C)nc(N2CCC[C@H]2CO)n1` (stereo partly drawn) [Example 23, 3-({4-(dimethylamino)-6-[(2S)-2-(hydroxymethyl)pyrrolidin-1-yl]-1,3,5-triazin-2-yl}amino)-6,6-dimethyl-N-[trans-2-phenylcyclopropyl]-4,6-dihydropyrrolo[3,4-c]pyrazole-5(1H)-carboxamide], the EC50 in assay [1] was above 4000 nM. Further, affinity in assay [2] (setting [3]) was put at a Ki of 140 nM.

For the compound `Cc1nc(Nc2n[nH]c3c2CN(C(=O)N[C@@H]2C[C@H]2c2ccccc2)C3(C)C)c2sccc2n1` [Example 32, 6,6-Dimethyl-3-[(2-methylthieno[3,2-d]pyrimidin-4-yl)amino]-N-[(1R,2S)-2-phenylcyclopropyl]-4,6-dihydropyrrolo[3,4-c]pyrazole-5(1H)-carboxamide], in assay [1], a half-maximal response (EC50) required 19 nM. This compound also had an inhibition constant Ki in assay [2] (setting [3]) of 3.5 nM.

The compound `CC1(C)c2[nH]nc(Nc3ncnc4sccc34)c2CN1C(=O)N[C@@H]1C[C@H]1c1ccccc1` [Example 50, 6,6-dimethyl-N-[(1R,2S)-2-phenylcyclopropyl]-3-(thieno[2,3-d]pyrimidin-4-ylamino)-4,6-dihydropyrrolo[3,4-c]pyrazole-5(1H)-carboxamide] came in with an EC50 in assay [1] of 340 nM. Besides, in assay [2] (setting [3]), the Ki was determined as 16 nM.

`CC1(C)c2[nH]nc(Nc3ncnc4ccsc34)c2CN1C(=O)N[C@@H]1C[C@H]1c1ccccc1` [Example 51, 6,6-dimethyl-N-[(1R,2S)-2-phenylcyclopropyl]-3-(thieno[3,2-d]pyrimidin-4-ylamino)-4,6-dihydropyrrolo[3,4-c]pyrazole-5(1H)-carboxamide] had a concentration for a half-maximal effect (EC50) in assay [1] of 31 nM. This compound registered a Ki in assay [2] (setting [3]) of 18 nM.

Take `Cc1ncnc(Nc2n[nH]c3c2CN(C(=O)N[C@H](CN(C)C)c2ccccc2)C3(C)C)c1F` [Example 56, N-[(1S)-2-(dimethylamino)-1-phenylethyl]-3-[(5-fluoro-6-methylpyrimidin-4-yl)amino]-6,6-dimethyl-4,6-dihydropyrrolo[3,4-c]pyrazole-5(1H)-carboxamide]: in assay [1], the EC50 was determined as 570 nM. The compound also yielded a Ki in assay [2] (setting [3]) of 240 nM.

`Cc1nc(Nc2n[nH]c3c2CN(C(=O)N[C@H](CN(C)C)c2ccccc2)C3(C)C)c2ccsc2n1` [Example 58, N-[(1S)-2-(dimethylamino)-1-phenylethyl]-6,6-dimethyl-3-[(2-methylthieno[2,3-d]pyrimidin-4-yl)amino]-4,6-dihydropyrrolo[3,4-c]pyrazole-5(1H)-carboxamide] yielded a half-maximal effective concentration (EC50) in assay [1] of 2.5 nM. Besides, the Ki in assay [2] worked out at 14 nM.

In assay [1], `CCOc1ncc(F)c(Nc2n[nH]c3c2CN(C(=O)N[C@H](CN(C)C)c2ccccc2)C3(C)C)n1` [Example 59, N-[(1S)-2-(dimethylamino)-1-phenylethyl]-3-[(2-ethoxy-5-fluoropyrimidin-4-yl)amino]-6,6-dimethyl-4,6-dihydropyrrolo[3,4-c]pyrazole-5(1H)-carboxamide] returned an EC50 of 2.4 nM. In addition, the inhibition constant Ki in assay [2] (setting [3]) worked out at 170 nM.

For `CN(C)C[C@@H](NC(=O)N1Cc2c(Nc3ccnc(C#N)n3)n[nH]c2C1(C)C)c1ccccc1` [Example 60, 3-[(2-cyanopyrimidin-4-yl)amino]-N-[(1S)-2-(dimethylamino)-1-phenylethyl]-6,6-dimethyl-4,6-dihydropyrrolo[3,4-c]pyrazole-5(1H)-carboxamide], in assay [1], the 50% effective concentration (EC50) is below 3.9 nM. In addition, affinity in assay [2] (setting [3]) was put at a Ki of 40 nM.

Turning to `CN(C)C[C@@H](NC(=O)N1Cc2c(Nc3ncnc4sccc34)n[nH]c2C1(C)C)c1ccccc1` [Example 61, N-[(1S)-2-(dimethylamino)-1-phenylethyl]-6,6-dimethyl-3-(thieno[2,3-d]pyrimidin-4-ylamino)-4,6-dihydropyrrolo[3,4-c]pyrazole-5(1H)-carboxamide], the 50% effective concentration (EC50) in assay [1] came out at 19 nM. The same compound displayed a Ki in assay [2] (setting [3]) of 22 nM.

Compound `Cc1cc2c(Nc3n[nH]c4c3CN(C(=O)N[C@H](CN(C)C)c3ccccc3)C4(C)C)ncnc2s1` [Example 62, N-[(1S)-2-(dimethylamino)-1-phenylethyl]-6,6-dimethyl-3-[(6-methylthieno[2,3-d]pyrimidin-4-yl)amino]-4,6-dihydropyrrolo[3,4-c]pyrazole-5(1H)-carboxamide] had an EC50 in assay [1] of 15 nM. For the same compound, the Ki in assay [2] (setting [3]) turned out to be 15 nM.

In assay [1], `CN(C)C[C@@H](NC(=O)N1Cc2c(Nc3nc(C#N)nc4ccccc34)n[nH]c2C1(C)C)c1ccccc1` [Example 64, 3-[(2-cyanoquinazolin-4-yl)amino]-N-[(1S)-2-(dimethylamino)-1-phenylethyl]-6,6-dimethyl-4,6-dihydropyrrolo[3,4-c]pyrazole-5(1H)-carboxamide] registered an EC50 below 3.9 nM. Moreover, affinity in assay [2] (setting [3]) was put at a Ki of 3 nM.
